Data published in PubChem BioAssay (NCI).
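96-well plates; 48 h exposure; 5 concentrations. Endpoints by linear interpolation between flanking doses. Not reached: highest tested concentration assigned. At the TGI there is no net growth.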

Assays:
Assay in all cases: DTP human tumour cell line panel, 48 h
786-0 renal = system: 786-0 renal
A498 renal = system: A498 renal
A549 NSCLC = system: A549 NSCLC
ACHN renal = system: ACHN renal
BT-549 breast = system: BT-549 breast
CAKI-1 renal = system: CAKI-1 renal
COLO 205 colon = system: COLO 205 colon
DU-145 prostate = system: DU-145 prostate
EKVX NSCLC = system: EKVX NSCLC
HCC-2998 colon = system: HCC-2998 colon
HCT-116 colon = system: HCT-116 colon
HCT-15 colon = system: HCT-15 colon
HL-60(TB) leukemia = system: HL-60(TB) leukemia
HOP-62 NSCLC = system: HOP-62 NSCLC
HOP-92 NSCLC = system: HOP-92 NSCLC
HS 578T breast = system: HS 578T breast
HT29 colon = system: HT29 colon
IGROV1 ovarian = system: IGROV1 ovarian
K-562 leukemia = system: K-562 leukemia
KM12 colon = system: KM12 colon
LOX IMVI melanoma = system: LOX IMVI melanoma
M14 melanoma = system: M14 melanoma
MALME-3M melanoma = system: MALME-3M melanoma
MCF7 breast = system: MCF7 breast
MDA-MB-231 breast = system: MDA-MB-231 breast
MDA-MB-435 = system: MDA-MB-435
MOLT-4 leukemia = system: MOLT-4 leukemia
NCI-H226 lung = system: NCI-H226 lung
NCI-H23 lung = system: NCI-H23 lung
NCI-H460 lung = system: NCI-H460 lung
NCI-H522 lung = system: NCI-H522 lung
NCI/ADR-RES ovarian = system: NCI/ADR-RES ovarian
OVCAR-3 ovarian = system: OVCAR-3 ovarian
OVCAR-4 ovarian = system: OVCAR-4 ovarian
OVCAR-5 ovarian = system: OVCAR-5 ovarian
OVCAR-8 ovarian = system: OVCAR-8 ovarian
PC-3 prostate = system: PC-3 prostate
RPMI-8226 leukemia = system: RPMI-8226 leukemia
RXF 393 renal = system: RXF 393 renal
SF-268 CNS = system: SF-268 CNS
SF-295 CNS = system: SF-295 CNS
SF-539 CNS = system: SF-539 CNS
SK-MEL-2 melanoma = system: SK-MEL-2 melanoma
SK-MEL-28 melanoma = system: SK-MEL-28 melanoma
SK-MEL-5 melanoma = system: SK-MEL-5 melanoma
SK-OV-3 ovarian = system: SK-OV-3 ovarian
SN12C renal = system: SN12C renal
SNB-19 CNS = system: SNB-19 CNS
SNB-75 CNS = system: SNB-75 CNS
SR leukemia = system: SR leukemia
SW-620 colon = system: SW-620 colon
T-47D breast = system: T-47D breast
TK-10 renal = system: TK-10 renal
U251 CNS = system: U251 CNS
UACC-257 melanoma = system: UACC-257 melanoma
UACC-62 melanoma = system: UACC-62 melanoma
UO-31 renal = system: UO-31 renal

Measured: TGI

CN(C(=O)c1ccncc1)c1ccccc1
> 100 µM: all assays above
